Biological target: T1, RORγt (Homo sapiens, UniProt P51449)
T1 construct: purchased reporter-cell kit
T1 sequence (P51449 269-508 limits assumed): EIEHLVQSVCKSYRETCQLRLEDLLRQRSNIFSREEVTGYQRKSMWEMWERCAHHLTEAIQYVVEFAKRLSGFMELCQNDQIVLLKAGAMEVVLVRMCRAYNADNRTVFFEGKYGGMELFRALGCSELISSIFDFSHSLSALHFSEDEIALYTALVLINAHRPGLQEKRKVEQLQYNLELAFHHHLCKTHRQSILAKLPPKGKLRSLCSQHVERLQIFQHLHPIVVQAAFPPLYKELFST
Experiment: Gal4 ligand binding assay (RORγt Gal fusion reporter assay)
Format: cell-based
Settings: inverse agonists, luciferase reporter, 24h
Experimental: Compounds of the present invention were tested in a human RORγ ligand binding assay using a commercially available cell based ligand binding reporter assay in 96-well format (Cat #IB04001, INDIGO Biosciences, State College, Pa.). The N-terminal DNA binding domains (DBD) of the native RORγ and RORγt receptors have been substituted with that of the yeast GAL4-DBD and stably transfected in […] cells that also stably express luciferase under the regulation by upstream activation sequence of yeast Gal4. These cells constitutively express high level RORγ activity due to binding of endogenous co-factors. Both agonist and inverse agonist activity can be detected. The assay was performed according to kit manufacturer's instructions as follows. 10 mM compound stocks were diluted serially 1:3 with DMSO and further diluted with provided media to generate 10 titration points from 60 μM to 3 nM. These treatment conditions were added to the plates as 2× media in 100 μL volume. Each plate includes a positive control with 10 titration points as well as 6negative control wells with vehicle only, with final DMSO concentration of 0.2%. RORγ reporter cells were rapidly thawed and added to the plates in 100 μL volume. The plates were incubated for 24h in a 37° C. humidified 5% CO2incubator. Media was removed before the addition of room temperature luciferous detection substrate. After 5 minute incubation, relative light units (RLUs) were quantified using a plate reading luminometer. Data was normalized to positive control wells with only […]. Before establishing internal controls, ursolic acid was used as control.

Row | SMILES | IC50
1 | CCc1cc(C(O)(C(F)(F)F)C(F)(F)F)ccc1-c1ccc(CN2CC3CCC(C2)N3S(C)(=O)=O)cc1C [Example 26, 2-(2-ethyl-2′-methyl-4′-((8-(methylsulfonyl)-3,8-diazabicyclo[3.2.1]octan-3-yl)methyl)-[1,1′-biphenyl]-4-yl)-1,1,1,3,3,3-hexafluoropropan-2-ol] | < 0.05 µM
2 | CCc1cc(CN2CC3CCC(C2)N3S(C)(=O)=O)ccc1-c1ccc(C(O)(C(F)(F)F)C(F)(F)F)cc1Cl [Example 27, 2-(2-chloro-2′-ethyl-4′-((8-(methylsulfonyl)-3,8-diazabicyclo[3.2.1]octan-3-yl)methyl)-[1,1′-biphenyl]-4-yl)-1,1,1,3,3,3-hexafluoropropan-2-ol] | < 0.05 µM
3 | CCc1c(-c2ccc(C(O)(C(F)(F)F)C(F)(F)F)cc2C)cc(F)c(CN2CC3CCC(C2)N3S(C)(=O)=O)c1F [Example 28, 2-(2′-ethyl-3′,5′-difluoro-2-methyl-4′-((8-(methylsulfonyl)-3,8-diazabicyclo[3.2.1]octan-3-yl)methyl)-[1,1′-biphenyl]-4-yl)-1,1,1,3,3,3-hexafluoropropan-2-ol] | < 0.05 µM
4 | CCc1cc(CN2CC3CCC(C2)N3S(C)(=O)=O)c(F)c(F)c1-c1ccc(C(O)(C(F)(F)F)C(F)(F)F)cc1C [Example 29, 2-(6′-ethyl-2′,3′-difluoro-2-methyl-4′-((8-(methylsulfonyl)-3,8-diazabicyclo[3.2.1]octan-3-yl)methyl)-[1,1′-biphenyl]-4-yl)-1,1,1,3,3,3-hexafluoropropan-2-ol] | < 0.05 µM
5 | CCc1c(F)c(CN2CC3CCC(C2)N3S(C)(=O)=O)cc(F)c1-c1ccc(C(O)(C(F)(F)F)C(F)(F)F)cc1C [Example 30, 2-(2′-ethyl-3′,6′-difluoro-2-methyl-4′-((8-(methylsulfonyl)-3,8-diazabicyclo[3.2.1]octan-3-yl)methyl)-[1,1′-biphenyl]-4-yl)-1,1,1,3,3,3-hexafluoropropan-2-ol] | < 0.05 µM
6 | CCc1cc(CN2CC3CCC(C2)N3S(C)(=O)=O)ccc1-c1ccc(C(O)(C(F)(F)F)C(F)(F)F)cc1C(N)=O [Example 31, 2′-ethyl-4-(1,1,1,3,3,3-hexafluoro-2-hydroxypropan-2-yl)-4′-((8-(methylsulfonyl)-3,8-diazabicyclo[3.2.1]octan-3-yl)methyl)-[1,1′-biphenyl]-2-carboxamide] | > 0.25 µM
7 | CCc1cc(CN2CC3CCC(C2)N3S(C)(=O)=O)ccc1-c1ccc(C(O)(C(F)(F)F)C(F)(F)F)cn1 [Example 32, 2-(6-(2-ethyl-4-((8-(methylsulfonyl)-3,8-diazabicyclo[3.2.1]octan-3-yl)methyl)phenyl)pyridin-3-yl)-1,1,1,3,3,3-hexafluoropropan-2-ol] | 0.05 to 0.25 µM
8 | CCc1cc(CN2CC3CCC(C2)N3S(C)(=O)=O)cnc1-c1ccc(C(O)(C(F)(F)F)C(F)(F)F)cc1C [Example 33, 2-(4-(3-ethyl-5-((8-(methylsulfonyl)-3,8-diazabicyclo[3.2.1]octan-3-yl)methyl)pyridin-2-yl)-3-methylphenyl)-1,1,1,3,3,3-hexafluoropropan-2-ol] | > 0.25 µM
9 | CCc1cc(CN2CC3CCC(C2)N3S(C)(=O)=O)ccc1-c1ccc(C(O)(C(F)(F)F)C(F)(F)F)cc1C [Example 34, 2-(2′-ethyl-2-methyl-4′-((8-(methylsulfonyl)-3,8-diazabicyclo[3.2.1]octan-3-yl)methyl)-[1,1′-biphenyl]-4-yl)-1,1,1,3,3,3-hexafluoropropan-2-ol] | < 0.05 µM
10 | Cc1cc(C(O)(C(F)(F)F)C(F)(F)F)ccc1-c1ccc(CN2CC3CCC(C2)N3S(C)(=O)=O)cc1C(C)C [Example 35, 1,1,1,3,3,3-hexafluoro-2-(2′-isopropyl-2-methyl-4′-((8-(methylsulfonyl)-3,8-diazabicyclo[3.2.1]octan-3-yl)methyl)-[1,1′-biphenyl]-4-yl)propan-2-ol] | 0.05 to 0.25 µM
11 | Cc1cc(CN2CC3CCC(C2)N3c2noc(C(C)(C)C)n2)ccc1-c1ccc(C(O)(C(F)(F)F)C(F)(F)F)cc1 [Example 36, 2-(4′-((8-(5-(tert-butyl)-1,2,4-oxadiazol-3-yl)-3,8-diazabicyclo[3.2.1]octan-3-yl)methyl)-2′-methyl-[1,1′-biphenyl]-4-yl)-1,1,1,3,3,3-hexafluoropropan-2-ol] | > 0.25 µM
12 | CCc1cc(CN2CC3CCC2CN3S(C)(=O)=O)ccc1-c1ccc(C(O)(C(F)(F)F)C(F)(F)F)cc1 (stereo not drawn) [Example 37, 2-(2′-ethyl-4′-((5-(methylsulfonyl)-2,5-diazabicyclo[2.2.2]octan-2-yl)methyl)-[1,1′-biphenyl]-4-yl)-1,1,1,3,3,3-hexafluoropropan-2-ol] | 0.05 to 0.25 µM
13 | CCc1cc(CN2CC3CC2CN3S(C)(=O)=O)ccc1-c1ccc(C(O)(C(F)(F)F)C(F)(F)F)cc1 (stereo not drawn) [Example 38, 2-(2′-ethyl-4′-((5-(methylsulfonyl)-2,5-diazabicyclo[2.2.1]heptan-2-yl)methyl)-[1,1′-biphenyl]-4-yl)-1,1,1,3,3,3-hexafluoropropan-2-ol] | < 0.05 µM
14 | CCc1cc(CN2CC3CCC(C2)N3C(C)=O)ccc1-c1ccc(C(O)(C(F)(F)F)C(F)(F)F)cc1 [Example 39, 1-(3-((2-ethyl-4′-(1,1,1,3,3,3-hexafluoro-2-hydroxypropan-2-yl)-[1,1′-biphenyl]-4-yl)methyl)-3,8-diazabicyclo[3.2.1]octan-8-yl)ethan-1-one] | < 0.05 µM
15 | CS(=O)(=O)N1C2CCC1CN(Cc1ccc(-c3ccc(C(O)(C(F)(F)F)C(F)(F)F)cc3)c(Br)c1)C2 [Example 40, 2-(2′-bromo-4′-((8-(methylsulfonyl)-3,8-diazabicyclo[3.2.1]octan-3-yl)methyl)-[1,1′-biphenyl]-4-yl)-1,1,1,3,3,3-hexafluoropropan-2-ol] | 0.05 to 0.25 µM
16 | OC(c1ccc(-c2ccc(CN3CC4CCC(C3)N4Cc3ccncc3)cc2Br)cc1)(C(F)(F)F)C(F)(F)F [Example 41, 2-(2′-bromo-4′-((8-(pyridin-4-ylmethyl)-3,8-diazabicyclo[3.2.1]octan-3-yl)methyl)-[1,1′-biphenyl]-4-yl)-1,1,1,3,3,3-hexafluoropropan-2-ol] | < 0.05 µM
17 | CCN1C2CCC1CN(Cc1ccc(-c3ccc(C(O)(C(F)(F)F)C(F)(F)F)cc3)c(C)c1)C2 [Example 42, 2-(4′-((8-ethyl-3,8-diazabicyclo[3.2.1]octan-3-yl)methyl)-2′-methyl-[1,1′-biphenyl]-4-yl)-1,1,1,3,3,3-hexafluoropropan-2-ol] | > 0.25 µM
18 | Cc1cc(CN2CC3CCC(C2)N3C(=O)C2CCOCC2)ccc1-c1ccc(C(O)(C(F)(F)F)C(F)(F)F)cc1 [Example 43, (3-((4′-(1,1,1,3,3,3-hexafluoro-2-hydroxypropan-2-yl)-2-methyl-[1,1′-biphenyl]-4-yl)methyl)-3,8-diazabicyclo[3.2.1]octan-8-yl)(tetrahydro-2H-pyran-4-yl)methanone] | 0.05 to 0.25 µM
19 | CCOC(=O)N1C2CCC1CN(Cc1ccc(-c3ccc(C(O)(C(F)(F)F)C(F)(F)F)cc3)c(C)c1)C2 [Example 44, ethyl 3-((4′-(1,1,1,3,3,3-hexafluoro-2-hydroxypropan-2-yl)-2-methyl-[1,1′-biphenyl]-4-yl)methyl)-3,8-diazabicyclo[3.2.1]octane-8-carboxylate] | > 0.25 µM
20 | COCCC(=O)N1C2CCC1CN(Cc1ccc(-c3ccc(C(O)(C(F)(F)F)C(F)(F)F)cc3)c(C)c1)C2 [Example 45, 1-(3-((4′-(1,1,1,3,3,3-hexafluoro-2-hydroxypropan-2-yl)-2-methyl-[1,1′-biphenyl]-4-yl)methyl)-3,8-diazabicyclo[3.2.1]octan-8-yl)-3-methoxypropan-1-one] | > 0.25 µM
21 | Cc1cc(CN2CC3CCC(C2)C3NS(C)(=O)=O)ccc1-c1ccc(C(O)(C(F)(F)F)C(F)(F)F)cc1 (stereo not drawn) [Example 46, N-(3-((4′-(1,1,1,3,3,3-hexafluoro-2-hydroxypropan-2-yl)-2-methyl-[1,1′-biphenyl]-4-yl)methyl)-3-azabicyclo[3.2.1]octan-8-yl)methanesulfonamide] | > 0.25 µM
22 | Cc1cc(CN2CC3CCC(C2)N3Cc2ccncn2)ccc1-c1ccc(C(O)(C(F)(F)F)C(F)(F)F)cc1 [Example 47, 1,1,1,3,3,3-hexafluoro-2-(2′-methyl-4′-((8-(pyrimidin-4-ylmethyl)-3,8-diazabicyclo[3.2.1]octan-3-yl)methyl)-[1,1′-biphenyl]-4-yl)propan-2-ol] | < 0.05 µM
23 | Cc1cc(CN2C3CCC2CN(Cc2ccc(-c4ccc(C(O)(C(F)(F)F)C(F)(F)F)cc4)c(Cl)c2)C3)ccn1 [Example 48, 2-(2′-chloro-4′-((8-((2-methylpyridin-4-yl)methyl)-3,8-diazabicyclo[3.2.1]octan-3-yl)methyl)-[1,1′-biphenyl]-4-yl)-1,1,1,3,3,3-hexafluoropropan-2-ol] | 0.05 to 0.25 µM
24 | Cc1cc(CN2CC3CC2CN3S(C)(=O)=O)ccc1-c1ccc(C(O)(C(F)(F)F)C(F)(F)F)cc1 (stereo not drawn) [Example 49, 1,1,1,3,3,3-hexafluoro-2-(2′-methyl-4′-((5-(methylsulfonyl)-2,5-diazabicyclo[2.2.1]heptan-2-yl)methyl)-[1,1′-biphenyl]-4-yl)propan-2-ol] | > 0.25 µM
